The record followed here is ChEMBL document CHEMBL1177663, “Synthesis and anti-HIV activity of 2-naphthyl substituted DAPY analogues as non-nucleoside reverse transcriptase inhibitors” (Bioorg Med Chem, 2010).

Structures are written as SMILES. A value given as a limit tells only on which side of the number the result lay.

The test system of data set [1] is Human immunodeficiency virus 1. Put plainly: Antiviral activity against HIV1 bearing reverse transcriptase K103N and Y181C double mutation infected in human MT4 cells assessed as inhibition of virus-induced cytopathic effect after 4 days by MTT assay. In kind it is functional, organism-based. To be noted: Human immunodeficiency virus 1, MT4, 96 h.
Data set [2] can be described thus: Cytotoxicity against human MT4 cells after 4 days by MTT assay. In kind it is cell-based.
A short description of data set [3]: Selectivity index, ratio of CC50 for human MT4 cells to EC50 for wild type HIV1 3B. In kind it is toxicity, cell-based. To be noted: read-out: Ratio CC50/EC50.
In data set [4] the test system is Human immunodeficiency virus 1. The experiment in a line: Antiviral activity against wild type HIV1 3B infected in human MT4 cells assessed as inhibition of virus-induced cytopathic effect after 4 days by MTT assay. In kind it is functional, organism-based. To be noted: Human immunodeficiency virus 1, 3B, MT4, 96 h.
Data set [5] concerns the target Human immunodeficiency virus type 1 reverse transcriptase (Human immunodeficiency virus 1, UniProt Q72547). The experiment in a line: Inhibition of HIV1 reverse transcriptase.

Consider `O=C1Nc2ccc(Cl)cc2[C@@](C#CC2CC2)(C(F)(F)F)O1` [EFAVIRENZ], for which the EC50 in data set [1] came out at 560 nM. The compound also returned a CC50 at 96 h in data set [2] above 63400 nM.

For the compound `Cc1cnc(Nc2ccc(C#N)cc2)nc1Oc1ccc2cc(C#N)ccc2c1Br`, the EC50 in data set [1] stood at 830 nM; in data set [4] it was 12 nM. Moreover, the selectivity ratio in data set [3] is above 23800. The half-maximal cytotoxic concentration (CC50) at 96 h in data set [2] was above 274000 nM.

On to `N#Cc1ccc(Nc2nccc(Oc3cc4ccc(C#N)cc4cc3Br)n2)cc1`, for which it took 1130 nM to reach half-maximal inhibition in data set [5] (IC50). The values for the EC50 in data set [1] and in data set [4] were above 56500 nM and 1 nM, respectively. Moreover, in data set [3], the selectivity ratio came to 50400. The CC50 at 96 h in data set [2] is above 56500 nM.

As for `Cc1cc(Oc2ccc3cc(C#N)ccc3c2Br)nc(Nc2ccc(C#N)cc2)n1`, the EC50 in data set [1] was determined as 220 nM; in data set [4], 7 nM. Moreover, the selectivity ratio in data set [3] was above 40100. The compound also had a CC50 at 96 h in data set [2] above 274000 nM.

In the case of `Cc1cnc(Nc2ccc(C#N)cc2)nc1Oc1ccc2cc(C#N)ccc2c1`, the EC50 in data set [1] turned out to be 332000 nM; in data set [4], 7 nM. Also, the selectivity ratio in data set [3] is above 44900. The same compound yielded a CC50 at 96 h in data set [2] above 332000 nM.

In turn, `COc1cc2cc(C#N)ccc2c(OC)c1Oc1ccnc(Nc2ccc(C#N)cc2)n1` showed an IC50 in data set [5] of 94.5 nM. The EC50 stood at 160 nM in data set [1] and 5 nM in data set [4]. Moreover, the selectivity ratio in data set [3] was at least 25000. The compound also showed a CC50 at 96 h in data set [2] above 118000 nM.

With `Cc1cc(Oc2ccc3cc(C#N)ccc3c2)nc(Nc2ccc(C#N)cc2)n1`, the values for the EC50 in data set [1] and in data set [4] were 332000 nM and 3 nM, respectively. In addition, the selectivity ratio in data set [3] is above 96500. Also, the CC50 at 96 h in data set [2] is above 332000 nM.

On to `CC(C)Nc1cccnc1N1CCN(C(=O)c2cc3cc(NS(C)(=O)=O)ccc3[nH]2)CC1` [DELAVIRDINE], for which the EC50 in data set [1] was above 3620 nM. The compound further registered a half-maximal cytotoxic concentration (CC50) at 96 h in data set [2] above 3620 nM.

In data set [5], `N#Cc1ccc(Nc2nccc(Oc3ccc4cc(C#N)ccc4c3Br)n2)cc1` gave an IC50 of 3010 nM. Moreover, the results for the EC50 in data set [1] and in data set [4] were 240 nM and 2 nM, respectively. Besides, in data set [3], the selectivity ratio was 181000. For the same compound, the CC50 at 96 h in data set [2] stood at 283000 nM.

Take `COc1cc2cc(C#N)ccc2c(Cl)c1Oc1ccnc(Nc2ccc(C#N)cc2)n1`: the EC50 amounted to 150 nM in data set [1] and 7 nM in data set [4]. For the same compound, the selectivity ratio in data set [3] is at least 25700. This compound registered a CC50 at 96 h in data set [2] above 191000 nM.

As for `N#Cc1ccc(Nc2nccc(Oc3ccc4cc(C#N)ccc4c3Cl)n2)cc1`, the EC50 in data set [1] was found to be 700 nM; in data set [4] it was 6 nM. Besides, the selectivity ratio in data set [3] came out at 48000. This compound yielded a CC50 at 96 h in data set [2] of 269000 nM.

For `Cc1ccnc2c1NC(=O)c1cccnc1N2C1CC1` [NEVIRAPINE], the EC50 in data set [1] is above 15000 nM; in data set [4] it was 75 nM. The CC50 at 96 h in data set [2] is above 15000 nM.

`COc1cc2cc(C#N)ccc2cc1Oc1ccnc(Nc2ccc(C#N)cc2)n1` showed an IC50 in data set [5] of 1320 nM. Further, the EC50 worked out at 319000 nM in data set [1] and 2 nM in data set [4]. Also, the selectivity ratio in data set [3] was above 158000. In data set [2], this compound had a CC50 at 96 h above 318000 nM.

In data set [5], `COc1c(Oc2ccnc(Nc3ccc(C#N)cc3)n2)ccc2cc(C#N)ccc12` showed an IC50 of 2290 nM. Further, the EC50 in data set [1] amounted to 380 nM; in data set [4], 2 nM. Besides, in data set [3], the selectivity ratio was at least 134000. This compound showed a CC50 at 96 h in data set [2] above 211000 nM.

`N#Cc1ccc(Nc2nccc(Oc3ccc4cc(C#N)ccc4c3)n2)cc1` gave an IC50 in data set [5] of 8720 nM. Further, the EC50 in data set [1] came to 6300 nM; in data set [4] it was 3 nM. In data set [3], the selectivity ratio was found to be 20500. Besides, the CC50 at 96 h in data set [2] was above 68800 nM.
